Experimental data as given in patent US4826856A, “Calcium antagonistic dihydropyridine derivative” (Yason s.r.l., priority 1985, dated 1989).
Where two headings read alike, the source gives them in different places.

Experiments:
[1] = Acute toxicity in the rat; settings: in vivo
Source text: (§1) The acute toxicity of YS 201 given by intraveous route, similar in the males and in the females in the rat as well as in the mouse, is as follows:
(§2) The acute toxicity of YS 201 given by oral route, similar in the males and in the females in the rat as well as in the mouse, is as follows: […]

[2] = Acute toxicity in the mouse; settings: in vivo
Source text: as §1, §2

normotensive rats = assay: Effect on blood pressure in normotensive rats (intraduodenal); assay type: in vivo, rat; settings: 15 mg/kg intraduodenal; for HR (heart rate): in beats/min (unit assumed)
Method: Comparative effect of YS 201 on 3 month old rats and 6 month old SHR-SP
YS 201 was given by intraduodenal route at 15 mg/kg in normotensive rats.

Sprague-Dawley rats = assay: Ventricular arrhythmias after re-circulation; assay type: in vivo, rat
Method: Ventricular arrhythmias after coronary artery ligation in the acute phase or during the period of re-circulation
Sprague-Dawley rats were subjected to ligation of the left coronary artery according to the method of Clark et al. in J. Pharmacol. Methods 3, 357-368, 1980. The drugs were administered by gastric tube 30 minutes before the ligation. By means of a continuous electrocardiographic recording, the ventricular arrhythmias such as ectopic beats (EB), ventricular tachycardia (VT), ventricular fibrillation (VF) for 30 minutes after ligation, were recorded.

[3] = Pharmacokinetics and bioavailability in dogs; assay type: in vivo; settings: dog; for half-life: hydrochloride
Method: YS 201 hydrochloride was intravenously and orally administered to dogs at 1 and 10 mg/kg respectively.

## CCOC(=O)C1=C(C)NC(C)=C(C(=O)OCCN2CCCCC2)C1c1cccc([N+](=O)[O-])c1 (stereo not drawn) [YS 201, ethyl-(β-piperidinoethyl)-2,6-dimethyl-4-(3-nitrophenyl)-1,4-dihydropyridine-3,5-dicarboxylate]
[1]; iv
  LD50: 12.5 mg/kg
[1]; po
  LD50: 402 mg/kg
[2]; iv
  LD50: 12.3 mg/kg
[2]; po
  LD50: 283 mg/kg
Normotensive rats; 1 min
  DBP (diastolic blood pressure): 13.0 ± 0.74
  MBP (mean blood pressure): 14.8 ± 0.64
  SBP (systolic blood pressure): 18.4 ± 0.48
  HR (heart rate): 556 ± 9.8
Normotensive rats; 2 min
  DBP (diastolic blood pressure): 12.0 ± 0.35
  MBP (mean blood pressure): 13.9 ± 0.28
  SBP (systolic blood pressure): 17.8 ± 0.26
  HR (heart rate): 556 ± 7.5
Normotensive rats; 5 min
  DBP (diastolic blood pressure): 10.4 ± 0.33
  MBP (mean blood pressure): 12.7 ± 0.19
  SBP (systolic blood pressure): 17.2 ± 0.26
  HR (heart rate): 564 ± 7.5
Normotensive rats; 5 min after administration
  reduction of diastolic blood pressure (DBP): 3.1 KPA
Normotensive rats; 10 min
  DBP (diastolic blood pressure): 9.4 ± 0.19
  MBP (mean blood pressure): 11.6 ± 0.15
  SBP (systolic blood pressure): 15.9 ± 0.19
  HR (heart rate): 536 ± 7.5
Normotensive rats; 15 min
  DBP (diastolic blood pressure): 9.8 ± 0.34
  MBP (mean blood pressure): 11.7 ± 0.28
  SBP (systolic blood pressure): 15.6 ± 0.29
  HR (heart rate): 524 ± 11.7
Normotensive rats; 30 min
  DBP (diastolic blood pressure): 11.3 ± 0.62
  MBP (mean blood pressure): 12.9 ± 0.51
  SBP (systolic blood pressure): 16.0 ± 0.35
  HR (heart rate): 496 ± 22.3
Normotensive rats; 60 min
  DBP (diastolic blood pressure): 12.4 ± 0.40
  MBP (mean blood pressure): 14.0 ± 0.35
  SBP (systolic blood pressure): 17.3 ± 0.26
  HR (heart rate): 428 ± 24.2
Normotensive rats; 120 min
  DBP (diastolic blood pressure): 13.7 ± 0.87
  MBP (mean blood pressure): 15.3 ± 0.90
  SBP (systolic blood pressure): 18.5 ± 1.06
Normotensive rats; TO (baseline)
  DBP (diastolic blood pressure): 13.5 ± 0.55
  MBP (mean blood pressure): 13.2 ± 0.50
  SBP (systolic blood pressure): 18.5 ± 0.47
  HR (heart rate): 432 ± 28.7
Sprague-Dawley rats; 7.5 mg/kg p.o.
  Death rate %: 10%
  EBs, mean value of indices + SEM: 42.8 ± 10.08
  VF %: 60%
  VF, mean value of indices + SEM: 1.3 ± 0.52
  VT, mean value of indices + SEM: 2.2 ± 1.70
Sprague-Dawley rats; 15 mg/kg p.o.
  Death rate %: 0%
  EBs, mean value of indices + SEM: 27.20 ± 5.87
  VF %: 50%
  VF, mean value of indices + SEM: 0.6 ± 0.33
  VT, mean value of indices + SEM: 1.2 ± 0.39
[3]; 1 mg/kg intravenous
  decline in concentration: typically biexponential
[3]; in vivo, 10 mg/kg, oral, read-out: average apparent bioavailable fraction
  bioavailability: 19.4%
[3]; in vivo, 1 mg/kg intravenous, read-out: mean half-life of elimination
  half-life: 1.47 h
[3]; in vivo, 10 mg/kg oral, read-out: mean apparent half-life of elimination
  half-life: 2.47 h
[3]; in vivo, oral, 10 mg/kg, read-out: average AUC (converted)
  AUC: 1080 ng·h/mL
[3]; in vivo, oral, 10 mg/kg, read-out: maximum concentration (Cmax)
  Cmax: 284 ng/mL
